The test system of assay [1] is Akt-pS473 in U87MG cells. The settings on record: Homo sapiens, U-87 MG, read-out: U87 Akt-pS473 % Inhibition or IC50, nM (IC50), U87MG cells.
Assay [2] relates to U87MG tumour cells. Description: Test of in vitro proliferation of U87MG tumour cells. Format: cell-based. The settings on record: Homo sapiens, U-87 MG, 72 h, U87MG cells, 72 hours; read-out: U87 Cell Proliferation IC50. Here is the method: Model 4: Test of in vitro Proliferation of U87MG Tumour Cells.
The cell growth is determined with the reagent CellTiter 96 AQueous One Solution Cell Proliferation Assay from Promega (Cat. No. G3581).

Assay [3] has as its target mTOR (human recombinant aa mTOR 1360-2549) (Homo sapiens (Human), UniProt P42345). The assay is described as follows: mTOR enzymatic test by TR-FRET (phosphorylation of GFP-4EBP1). Format: biochemical. In a few lines:
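After a 30 min room-temperature kinase reaction, EDTA (10 mM final) and Tb-labelled phospho-Thr46 antibody (2 nM final) were added and incubated 60 min. Energy transfer from Tb to phosphorylated GFP-4EBP1 was read at 340 nm excitation, emissions 490/520 nm. Values derive from the 520/490 fluorescence ratio.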
In general terms: TR-FRET usually uses a lanthanide donor and a delayed reading to cut background.

Assay [4] has as its target PI3Kα (p110α/p85α) (Homo sapiens (Human), UniProt P42336). The assay is described as follows: PI3Kα enzymatic test by measuring the consumption of ATP. The class given is biochemical. In a few lines: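 ATP consumption read out by KinaseGlo luminescence after a 90 min reaction of 1.7 μg/ml PI3Kα (p110α/p85α) with 2 μM ATP and 50 μM PIP2, buffered at pH 7.5 (Tris, 10 mM MgCl2, 1 mM EGTA, 0.03% Chaps, 1 mM DTT). Threefold dilution series over ≥10 000-fold range yield IC50.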

Bounds are passed on as bounds.

PI3Kα (p110α/p85α), sequence (P42336 whole entry): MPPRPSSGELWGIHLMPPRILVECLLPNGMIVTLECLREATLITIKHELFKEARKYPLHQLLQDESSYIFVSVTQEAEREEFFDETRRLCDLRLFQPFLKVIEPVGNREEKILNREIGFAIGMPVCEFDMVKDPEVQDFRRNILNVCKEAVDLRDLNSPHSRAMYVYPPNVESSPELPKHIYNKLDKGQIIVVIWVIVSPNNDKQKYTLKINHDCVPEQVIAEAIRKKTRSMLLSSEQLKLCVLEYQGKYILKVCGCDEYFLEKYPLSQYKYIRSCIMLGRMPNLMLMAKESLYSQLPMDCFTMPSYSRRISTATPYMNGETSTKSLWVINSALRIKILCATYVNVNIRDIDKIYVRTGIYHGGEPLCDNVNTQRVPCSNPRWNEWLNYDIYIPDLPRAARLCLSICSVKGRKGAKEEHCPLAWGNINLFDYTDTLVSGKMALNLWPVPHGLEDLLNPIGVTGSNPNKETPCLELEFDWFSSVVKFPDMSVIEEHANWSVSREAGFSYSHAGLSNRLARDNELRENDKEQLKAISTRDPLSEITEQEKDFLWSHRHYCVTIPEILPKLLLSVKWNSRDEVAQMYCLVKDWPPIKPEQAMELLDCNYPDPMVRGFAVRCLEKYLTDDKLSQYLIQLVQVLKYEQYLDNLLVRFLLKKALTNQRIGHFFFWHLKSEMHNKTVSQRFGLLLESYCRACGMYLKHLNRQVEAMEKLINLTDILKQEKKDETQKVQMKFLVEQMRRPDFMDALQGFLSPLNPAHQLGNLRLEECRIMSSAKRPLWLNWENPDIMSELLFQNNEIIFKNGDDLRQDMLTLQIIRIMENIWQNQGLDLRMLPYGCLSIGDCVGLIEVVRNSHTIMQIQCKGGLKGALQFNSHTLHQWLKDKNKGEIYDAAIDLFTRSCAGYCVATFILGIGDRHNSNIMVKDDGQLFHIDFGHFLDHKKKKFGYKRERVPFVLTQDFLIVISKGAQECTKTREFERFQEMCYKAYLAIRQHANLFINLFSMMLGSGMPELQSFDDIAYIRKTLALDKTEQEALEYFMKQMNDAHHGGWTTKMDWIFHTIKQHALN
PI3Kα (p110α/p85α), sequence (P27986 whole entry partner): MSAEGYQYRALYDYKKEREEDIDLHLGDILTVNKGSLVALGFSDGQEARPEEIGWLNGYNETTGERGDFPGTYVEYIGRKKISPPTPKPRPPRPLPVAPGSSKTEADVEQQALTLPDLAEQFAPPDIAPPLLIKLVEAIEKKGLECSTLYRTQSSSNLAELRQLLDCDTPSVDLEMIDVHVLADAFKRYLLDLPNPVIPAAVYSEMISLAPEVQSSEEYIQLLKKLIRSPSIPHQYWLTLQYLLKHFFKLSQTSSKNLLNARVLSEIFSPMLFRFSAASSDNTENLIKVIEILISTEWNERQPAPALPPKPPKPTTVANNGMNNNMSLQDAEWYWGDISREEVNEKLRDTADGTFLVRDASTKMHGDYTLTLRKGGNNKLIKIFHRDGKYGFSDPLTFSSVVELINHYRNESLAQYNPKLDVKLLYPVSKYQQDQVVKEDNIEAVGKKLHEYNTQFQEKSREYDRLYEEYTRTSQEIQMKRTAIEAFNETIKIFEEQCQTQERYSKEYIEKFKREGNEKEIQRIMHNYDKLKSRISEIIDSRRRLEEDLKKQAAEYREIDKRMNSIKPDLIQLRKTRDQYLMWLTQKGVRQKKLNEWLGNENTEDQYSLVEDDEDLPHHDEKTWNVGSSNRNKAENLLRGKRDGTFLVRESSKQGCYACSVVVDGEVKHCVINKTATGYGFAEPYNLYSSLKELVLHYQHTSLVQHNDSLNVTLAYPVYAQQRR
mTOR (human recombinant aa mTOR 1360-2549), sequence (P42345 1360-2549): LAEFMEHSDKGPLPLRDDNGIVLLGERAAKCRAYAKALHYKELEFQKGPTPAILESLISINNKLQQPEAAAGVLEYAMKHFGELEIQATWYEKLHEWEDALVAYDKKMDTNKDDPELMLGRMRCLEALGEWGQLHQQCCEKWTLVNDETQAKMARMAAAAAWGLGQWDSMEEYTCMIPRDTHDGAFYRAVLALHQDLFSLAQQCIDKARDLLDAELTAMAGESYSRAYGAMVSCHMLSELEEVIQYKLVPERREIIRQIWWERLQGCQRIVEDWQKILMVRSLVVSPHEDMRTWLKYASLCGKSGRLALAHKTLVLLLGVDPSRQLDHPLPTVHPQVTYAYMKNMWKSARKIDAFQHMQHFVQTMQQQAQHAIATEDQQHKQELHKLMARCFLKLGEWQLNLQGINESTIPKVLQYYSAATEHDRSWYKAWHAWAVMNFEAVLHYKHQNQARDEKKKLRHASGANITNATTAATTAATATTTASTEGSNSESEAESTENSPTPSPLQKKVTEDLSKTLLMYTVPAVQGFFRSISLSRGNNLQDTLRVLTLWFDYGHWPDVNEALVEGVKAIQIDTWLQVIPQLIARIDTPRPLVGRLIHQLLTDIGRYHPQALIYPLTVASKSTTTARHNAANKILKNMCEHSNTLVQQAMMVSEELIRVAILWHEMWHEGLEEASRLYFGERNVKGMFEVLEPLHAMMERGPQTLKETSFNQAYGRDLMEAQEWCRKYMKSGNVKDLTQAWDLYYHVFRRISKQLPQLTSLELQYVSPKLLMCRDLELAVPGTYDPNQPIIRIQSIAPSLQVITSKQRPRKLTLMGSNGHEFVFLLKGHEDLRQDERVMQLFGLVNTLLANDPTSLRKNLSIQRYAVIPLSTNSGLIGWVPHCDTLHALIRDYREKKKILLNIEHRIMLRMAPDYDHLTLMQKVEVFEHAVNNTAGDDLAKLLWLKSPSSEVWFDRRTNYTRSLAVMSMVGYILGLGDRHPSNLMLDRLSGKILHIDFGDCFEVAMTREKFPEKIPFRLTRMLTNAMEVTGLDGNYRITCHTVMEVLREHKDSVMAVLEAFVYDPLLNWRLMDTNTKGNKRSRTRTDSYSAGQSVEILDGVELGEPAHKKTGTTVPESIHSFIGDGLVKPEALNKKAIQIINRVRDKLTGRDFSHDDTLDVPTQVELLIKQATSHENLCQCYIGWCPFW

For the compound `CCN1CC(C)(C)Oc2nc(N3CCOC[C@@H]3C)nc(-c3ccc(NC(=O)Nc4cccc(OC(F)F)c4)c(F)c3)c2C1=O` [Example 212, 1-(3-Difluoromethoxyphenyl)-3-{4-[6-ethyl-8,8-dimethyl-2-((S)-3-methylmorpholin-4-yl)-5-oxo-5,6,7,8-tetrahydro-9-oxa-1,3,6-triazabenzocyclohepten-4-yl]-2-fluorophenyl}urea], the IC50 in assay [1] is 8 nM; in assay [2] it was 71 nM; in assay [3], 141 nM. The “PI3Ka IC50” value in assay [4] is reported as 1540 nM.
The like results for `CCN1CC(C)(C)Oc2nc(N3CC4CCC(C3)O4)nc(-c3ccc(NC(=O)Nc4cc(C)nc(C)c4)c(F)c3)c2C1=O` [Example 58, 1-(2,6-Dimethylpyridin-4-yl)-3-{4-[6-ethyl-8,8-dimethyl-2-(8-oxa-3-azabicyclo[3.2.1]oct-3-yl)-5-oxo-5,6,7,8-tetrahydro-9-oxa-1,3,6-triazabenzocyclohepten-4-yl]-2-fluorophenyl}urea] were, in that order, 20 nM, 71 nM, 28 nM and 9470 nM.
In the case of `CCN1CC(C)(C)Oc2nc(N3CCOC[C@@H]3C)nc(-c3ccc(NC(=O)Nc4cc(OC)ccn4)c(F)c3)c2C1=O` [Example 181, 1-{4-[6-Ethyl-8,8-dimethyl-2-((S)-3-methylmorpholin-4-yl)-5-oxo-5,6,7,8-tetrahydro-9-oxa-1,3,6-triazabenzocyclohepten-4-yl]-2-fluorophenyl}-3-(4-methoxypyridin-2-yl)urea], the IC50 in assay [1] was determined as 285 nM; in assay [2], 1320 nM; in assay [3] it was 74 nM. For the same compound, the “PI3Ka IC50” value in assay [4] was 7650 nM.
The like results for `CCN1CC(C)(C)Oc2nc(N3CC4CCC(C3)O4)nc(-c3ccc(NC(=O)OC)cc3)c2C1=O` [Example 105, {4-[6-Ethyl-8,8-dimethyl-2-(8-oxa-3-azabicyclo[3.2.1]oct-3-yl)-5-oxo-5,6,7,8-tetrahydro-9-oxa-1,3,6-triazabenzocyclohepten-4-yl]phenyl}carbamic acid methyl ester] were, in that order, 360 nM, 2690 nM, 180 nM and >10000 nM.
The like results for `CC[C@H]1COCCN1c1nc2c(c(-c3ccc(NC(=O)Nc4ccc(C)nc4)c(F)c3)n1)C(=O)N(CC)CC(C)(C)O2` [Example 37, 1-{4-[6-Ethyl-2-((S)-3-ethylmorpholin-4-yl)-8,8-dimethyl-5-oxo-5,6,7,8-tetrahydro-9-oxa-1,3,6-triazabenzocyclohepten-4-yl]-2-fluorophenyl}-3-(6-methylpyridin-3-yl)urea] were, in that order, 54 nM, 869 nM, 122 nM and 8630 nM.
The like results for `CC1(C)CN(C2CCOCC2)C(=O)c2c(nc(N3CC4CCC(C3)O4)nc2-c2ccc(NC(=O)Nc3ccon3)c(F)c2)O1` [Example 153, 1-{4-[8,8-Dimethyl-2-(8-oxa-3-azabicyclo[3.2.1]oct-3-yl)-5-oxo-6-(tetrahydropyran-4-yl)-5,6,7,8-tetrahydro-9-oxa-1,3,6-triazabenzocyclohepten-4-yl]-2-fluorophenyl}-3-isoxazol-3-ylurea] were, in that order, 116 nM, 346 nM, 31 nM and >10000 nM.
In the case of `CCN1CC(C)(C)Oc2nc(N3CC4CCC(C3)O4)nc(-c3ccc(NC(=O)Nc4ccncc4)c(F)c3)c2C1=O` [Example 52, 1-{4-[6-Ethyl-8,8-dimethyl-2-(8-oxa-3-azabicyclo[3.2.1]oct-3-yl)-5-oxo-5,6,7,8-tetrahydro-9-oxa-1,3,6-triazabenzocyclohepten-4-yl]-2-fluorophenyl}-3-pyridin-4-ylurea], the IC50 in assay [1] came out at 16 nM; in assay [2] it was 29 nM; in assay [3], 18 nM. The “PI3Ka IC50” value in assay [4] is listed as 1710 nM.

The values above are taken from US9120812B2, “Pyrimidooxazocine derivatives as mTOR-inhibitors” (SANOFI, priority 2012, dated 2015).
